Test system: peritoneal macrophage
Experiment: Phagocytosis of peritoneal macrophage in mice
Type: in vivo
Settings: drugs subcutaneously daily for 7 days
Experimental: Added 0.02 ml of 5% washed chick red blood cell suspension to 0.5 ml of the peritoneal exudate, shaken gently to mix and incubated at 37° C. for 5 minutes. Dipped two coverslips, closed to each other, in the above mixture and incubate for 30 minutes for the migration of the macrophages along the coverslips then fixed and stained with Sharma stain. Examined microscopically for: Phagocytic rate—number of macrophages with phagocytized chick red blood cells per 100 macrophages counted.
Method of animal model was regular. The drugs were injected subcutaneously daily for 7 days.

O=P1(N(CCCl)CCCl)NCCCO1 (stereo not shown) [CY, Cyclophosphamide]
Phagocytic rate (x + SD, %): 7.52 ± 0.46%

Source: US20030152647A1, “Safe botanical drug for treating malignant pleural effusion and cancer and increasing immune function” (priority 2002, published 2003)
